Measured values from patent US20090285898A1, “COMBINATION OF DEHYDROEPIANDROSTERONE OR DEHYDROEPIANDROSTERONE-SULFATE WITH AN ANTICHOLINERGIC BRONCHODILATOR FOR TREATMENT OF ASTHMA OR CHRONIC OBSTRUCTIVE PULMONARY DISEASE” (priority 2003, published 2009).
Where “and” joins values, the source holds several entries; their conditions need not be identical. Equal values may be shown once.

How the values were obtained:
[1] = Particle size after jet milling or spray drying (Malvern Mastersizer X, light microscope); format: physicochemical; settings: two batches
Procedure: Approximately 1 g sample was passed through the jet mill, once, and approximately 2 g sample were passed through the jet mill twice. […] The resulting solution was sonicated for 3 minutes and appeared fully dispersed. The dispersed solutions were tested on a Malvern Mastersizer X with a small volume sampler (SVS) attachment. One sample of dispersed material was tested 5 times. The median particle size or D (v, 0.5) of unmilled material was 52.56 μm and the % RSD (relative standard deviation) was 7.61 for the 5 values. The D (v, 0.5) for a single pass through the jet mill was 3.90 μm and the % RSD was 1.27, and the D (v, 0.5) from a double pass through the jet mill 3.25 μm and the % RSD was 3.10.
The solution was spray-dried with a B-191 Mini Spray-Drier (Buchi, Flawil, Switzerland) with an inlet temperature of 55° C., outlet temperature of 40° C., at 100% aspirator, at 10% pump, nitrogen flow at 40 mbar and spray flow at 600 units. The spray-dried product was suspended in hexane and Span85 surfactant added to reduce agglomeration. The dispersions were sonicated with cooling for 3-5 minutes for complete dispersion and the dispersed solutions tested on a Malvern Mastersizer X with a Small Volume Sampler (SVS) attachment. […] Visual examination by light microscope of the dispersions of each batch confirmed that spray drying produced small respirable size particles. […]

Human ASM cells = assay: EGF induced ASM proliferation ([3H]-thymidine incorporation); format: cell-based; settings: for effect on EGF response (ASM proliferation): Mch 10 μM, atropine alone, DHEA-S in the presence or absence of Mch and atropine
Procedure: Human ASM cells were obtained from the distal trachea of transplant donors in compliance with the University of Pennsylvania's Institutional Review Board. Distal trachealis was dissected free of connective tissue and enzymatically digested to yield approximately 1×10^4 human ASM cells. These cells were then grown to confluence in 10% fetal bovine serum and quiesced in serum-free media containing 1% bovine serum albumin for 24 hours. […] After the initial incubation, cells were then exposed to [^3H]-thymidine and DNA synthesis was measured over 24 hours using thymidine incorporation. The cells were scraped and placed on filters which were then counted using a beta counter. All experiments were repeated in a minimum of three human ASM cell lines. All conditions per experiment were run with six replicates.

HT-29 SF cells [2] = assay: Reversal of DHEA effect on cell cycle; format: cell-based, human; settings: 25 FM DHEA; supplemented medium; 48 and 72 hours
[3] = Solubility of DHEA-S in NaCl solutions; format: physicochemical; settings: 20 mM Na+; Ksp 1316 mM^2; 15° C.
From the text: Inhalation of pure water can produce a cough stimulus. […] The temperature effect is weaker at high NaCl concentrations.

[4] = Nebulizer studies (Pari LC Plus, by-pass collector and impactor); settings: 0.12% NaCl
Procedure: The nebulizer is filled with 5 mL of solution and nebulization is continued until the output became visually insignificant (4½ to 5 min.). Nebulizer solutions are tested using a California Instruments AS-6 6-stage impactor with a USP throat. The impactor is run at 30 L/min for 8 s to collect a sample following one minute of nebulization time. At all other times during the experiment, the aerosol is drawn through the by-pass collector at approximately 33 L/min. The collection apparatus, nebulizer, and impactor are rinsed with mobile phase and assayed by HPLC. […] This volume is selected as the practical upper limit for use in a clinical study.

[5] = Short-term solution stability of DHEA-S nebulizer formulation; format: physicochemical; settings: 10 mg/mL in 0.12% NaCl
Procedure: Aliquots of this solution are filled into clear glass vials and stored at RT (24-26° C.) and at 40° C. The samples are checked daily for DHEA-S content, DHEA content, and appearance. For each time point, duplicate samples are withdrawn and diluted from each vial. […] The study is stopped on day three. […] The solution should easily be stable for the day of reconstitution in a clinical trial. The following section describes the aerosol properties of this formulation.

HT-29 SF cells [6] = assay: DHEA effect on cell growth; format: cell-based, human; settings: 0, 12.5, 25, 50, or 200 μM; 0-72 hours

## C[C@]12CC[C@H](OS(=O)(=O)[O-])CC1=CC[C@@H]1[C@@H]2CC[C@]2(C)C(=O)CC[C@@H]12.[Na+] [Anhydrous DHEA-S]
[1]; Malvern Mastersizer X
  mean particle size of spray dried material: 5.07±0.70 μm and 6.66±0.91 μm
[1]; visual examination by light microscope
  mean particle size of spray dried material: 2.4 μm and 2.0 μm

## CC(=O)OC(C)C[N+](C)(C)C (centres unmarked)
Human ASM cells
  effect on EGF response (ASM proliferation): further augmented

## C[C@@](O)(CCO)CC(=O)O [MVA, mevalonic acid]
HT-29 SF cells [2]
  prevention of DHEA-induced S phase depletion (G1 arrest): partially prevented this effect in the initial 48 hours but not after 72 hours

## CC(C)CCC[C@@H](C)[C@H]1CC[C@H]2[C@@H]3CC=C4C[C@@H](O)CC[C@]4(C)[C@H]3CC[C@]12C [CH, cholesterol]
HT-29 SF cells [2]
  prevention of DHEA-induced S phase depletion (G1 arrest): very little effect at 48 hours and no effect at 72 hours

## C[C@]12CC[C@H](OS(=O)(=O)[O-])CC1=CC[C@@H]1[C@@H]2CC[C@]2(C)C(=O)CC[C@@H]12.[Na+] [DHEA-S, sodium dehydroepiandrostenone sulfate]
[3]
  calculated DHEA-S solution concentration: 27.5 mM
[4]
  highest solution concentration for clinical trial formulation (no precipitate during nebulization): approximately 7.5 mg/mL
Human ASM cells
  effect on EGF response (ASM proliferation): attenuate the EGF response
[5]; 40° C.
  solution appearance on storage: became cloudy after two days of storage
[5]; RT (24-26° C.)
  solution appearance on storage: slight precipitate is observed on the third day

## C[C@]12CC[C@H](O)CC1=CC[C@@H]1[C@@H]2CC[C@]2(C)C(=O)CC[C@@H]12 [DHEA, 3β-hydroxyandrost-5-en-17-one]
HT-29 SF cells [6]
  effect on growth of HT-29 SF cells: time- and dose-dependent inhibition of growth

## CN1[C@@H]2CC[C@H]1C[C@@H](OC(=O)C(CO)c1ccccc1)C2 (some centres unmarked) [atropine]
Human ASM cells; EGF plus 10 μM Mch
  effect on Mch augmentation of EGF response: reverse the effects of Mch
Human ASM cells
  effect on EGF response (ASM proliferation): no effect on EGF response

## EGF: growth factor used to induce DNA synthesis in human ASM cells (NSDSECPLSHDGYCLHDGVCMYIEALDKYACNCVVGYIGERCQYRDLKWWELR; Epidermal growth factor; UniProt P01133 971-1023, looked up)
Human ASM cells; EGF (1 ng/ml), thymidine incorporation
  increase in ASM proliferation: 8 fold
